Measured values taken from patent US9000029B2, “Proline sulfonamide derivatives as orexin receptor antagonists” (Actelion Pharmaceuticals Ltd., priority 2010, dated 2015).
Where two headings read alike, the source gives them in different places.

How the values were obtained:
human orexin-1 receptor = human orexin-1 receptor (Homo sapiens (Human), UniProt O43613); test: Intracellular calcium measurements (FLIPR), antagonism of orexin-A response; assay type: cell-based; conditions: CHO cells, 3 nM orexin-A, read-out: IC50 Ox1
Sequence of human orexin-1 receptor (O43613 whole entry): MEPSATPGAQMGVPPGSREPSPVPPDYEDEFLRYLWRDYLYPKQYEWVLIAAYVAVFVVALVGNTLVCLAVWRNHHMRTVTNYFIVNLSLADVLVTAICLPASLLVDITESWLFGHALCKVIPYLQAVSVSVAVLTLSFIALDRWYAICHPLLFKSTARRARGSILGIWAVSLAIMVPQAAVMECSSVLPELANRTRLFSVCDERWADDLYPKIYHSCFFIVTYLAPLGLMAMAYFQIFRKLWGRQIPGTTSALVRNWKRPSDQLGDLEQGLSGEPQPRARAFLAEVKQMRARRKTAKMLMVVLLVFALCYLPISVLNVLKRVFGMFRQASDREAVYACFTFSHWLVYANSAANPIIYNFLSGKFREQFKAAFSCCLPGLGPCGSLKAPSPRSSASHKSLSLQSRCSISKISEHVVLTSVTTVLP
Description: (§1) In Vitro Assay: Intracellular Calcium Measurements:
(§2) Chinese hamster ovary (CHO) cells expressing the human orexin-1 receptor and the human orexin-2 receptor, respectively, are grown in culture medium (Ham F-12 with L-Glutamine) containing 300 μg/ml G418, 100 U/ml penicillin, 100 μg/ml streptomycin and 10% heat inactivated fetal calf serum (FCS). The cells are seeded at 20'000 cells/well into 384-well black clear bottom sterile plates (Greiner). The seeded plates are incubated overnight at 37° C. in 5% CO2.
(§3) Human orexin-A as an agonist is prepared as 1 mM stock solution in MeOH: water (1:1), diluted in HBSS containing 0.1% bovine serum albumin (BSA), NaHCO3: 0.375 g/l and 20 mM HEPES for use in the assay at a final concentration of 3 nM.
(§4) Antagonists are prepared as 10 mM stock solution in DMSO, then diluted in 384-well plates using DMSO followed by a transfer of the dilutions into in HBSS containing 0.1% bovine serum albumin (BSA), NaHCO3: 0.375 g/l and 20 mM HEPES. On the day of the assay, 50 μl of staining buffer (HBSS containing 1% FCS, 20 mM HEPES, NaHCO3: 0.375 g/l, 5 mM probenecid (Sigma) and 3 μM of the fluorescent calcium indicator fluo-4 AM (1 mM stock solution in DMSO, containing 10% pluronic) is added to each well. The 384-well cell-plates are incubated for 50 min at 37° C. in 5% CO2 followed by equilibration at RT for 30 min before measurement.
(§5) Within the Fluorescent Imaging Plate Reader (FLIPR Tetra, Molecular Devices), antagonists are added to the plate in a volume of 10 μl/well, incubated for 10 min or (where explicitly indicated) for 120 min and finally 10 μl/well of agonist is added. Fluorescence is measured for each well at 1 second intervals, and the height of each fluorescence peak is compared to the height of the fluorescence peak induced by 3 nM orexin-A with vehicle in place of antagonist. The IC50 value (the concentration of compound needed to inhibit 50% of the agonistic response) is determined and may be normalized using the obtained IC50 value of a on-plate reference compound. Optimized conditions were achieved by adjustment of pipetting speed and cell splitting regime. The calculated IC50 values may fluctuate depending on the daily cellular assay performance. Fluctuations of this kind are known to those skilled in the art.

human orexin-2 receptor = human orexin-2 receptor (Homo sapiens (Human), UniProt O43614); test: as above; assay type: cell-based; conditions: CHO cells, 3 nM orexin-A, read-out: IC50 Ox2
Sequence of human orexin-2 receptor (O43614 whole entry): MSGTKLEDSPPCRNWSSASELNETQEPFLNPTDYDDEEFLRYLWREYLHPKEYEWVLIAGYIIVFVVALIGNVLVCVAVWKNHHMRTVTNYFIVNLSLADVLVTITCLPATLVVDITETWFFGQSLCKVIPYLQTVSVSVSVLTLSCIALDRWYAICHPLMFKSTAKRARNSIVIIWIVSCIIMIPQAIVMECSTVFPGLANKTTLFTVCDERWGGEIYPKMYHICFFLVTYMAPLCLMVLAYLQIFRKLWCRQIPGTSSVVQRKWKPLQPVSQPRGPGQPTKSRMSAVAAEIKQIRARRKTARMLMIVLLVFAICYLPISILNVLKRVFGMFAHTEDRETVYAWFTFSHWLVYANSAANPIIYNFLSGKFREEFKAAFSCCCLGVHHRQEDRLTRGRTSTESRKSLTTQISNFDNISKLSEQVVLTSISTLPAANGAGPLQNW
Description: as §1, §2, §3, §4, §5

[1] = compound incubation time of 120 min

SMILES | IC50 (human orexin-1 receptor; [1]) | IC50 (human orexin-2 receptor; [1]) | IC50 (human orexin-1 receptor; compound incubation 10 min) | IC50 (human orexin-2 receptor; compound incubation 10 min)
Cc1cc(C)cc(NC(=O)[C@@H]2CCCN2S(=O)(=O)c2ccc(S(C)(=O)=O)cc2)c1 [Example 49, (S)-1-(4-Methanesulfonyl-benzenesulfonyl)-pyrrolidine-2-carboxylic acid (3,5-dimethyl-phenyl)-amide] | 0.016 µM | 0.197 µM |  | 
COc1ccc(S(=O)(=O)N2CCC[C@H]2C(=O)Nc2cc(Cl)ccc2OC)cc1 [Example 35, (S)-1-(4-Methoxy-benzenesulfonyl)-pyrrolidine-2-carboxylic acid (5-chloro-2-methoxy-phenyl)-amide] |  |  | 0.714 µM | 0.209 µM
O=C(Nc1cccc(OC(F)(F)F)c1)[C@@H]1CCCN1S(=O)(=O)c1ccc(Br)s1 [Example 2, (S)-1-(5-Bromo-thiophene-2-sulfonyl)-pyrrolidine-2-carboxylic acid (3-trifluoromethoxy-phenyl)-amide] |  |  | 0.149 µM | 0.104 µM
O=C(Nc1ccccc1)[C@@H]1CCCN1S(=O)(=O)c1ccc(Br)s1 [Example 15, (S)-1-(5-Bromo-thiophene-2-sulfonyl)-pyrrolidine-2-carboxylic acid phenylamide] |  |  | 0.333 µM | 0.164 µM
COc1ccc(C)cc1S(=O)(=O)N1CCC[C@H]1C(=O)Nc1cc(C)cc(C)c1 [Example 48, (S)-1-(2-Methoxy-5-methyl-benzenesulfonyl)-pyrrolidine-2-carboxylic acid (3,5-dimethyl-phenyl)-amide] | 0.043 µM | 0.004 µM |  | 
COc1ccc(S(=O)(=O)N2CCC[C@H]2C(=O)Nc2ccc3c(c2)CCC3)cc1 [Example 33, (S)-1-(4-Methoxy-benzenesulfonyl)-pyrrolidine-2-carboxylic acid indan-5-ylamide] |  |  | 0.129 µM | 0.012 µM
COc1ccc(S(=O)(=O)N2CCC[C@H]2C(=O)Nc2cc(C)ccc2F)cc1 [Example 38, (S)-1-(4-Methoxy-benzenesulfonyl)-pyrrolidine-2-carboxylic acid (2-fluoro-5-methyl-phenyl)-amide] |  |  | 0.304 µM | 0.026 µM
Cc1cc(C)cc(NC(=O)[C@@H]2CCCN2S(=O)(=O)c2ccc(C)cc2Br)c1 [Example 52, (S)-1-(2-Bromo-4-methyl-benzenesulfonyl)-pyrrolidine-2-carboxylic acid (3,5-dimethyl-phenyl)-amide] | 0.089 µM | 0.082 µM |  | 
Cc1cc(C)cc(NC(=O)[C@@H]2CCCN2S(=O)(=O)c2cc(C(F)(F)F)ccc2Cl)c1 [Example 50, (S)-1-(2-Chloro-5-trifluoromethyl-benzenesulfonyl)-pyrrolidine-2-carboxylic acid (3,5-dimethyl-phenyl)-amide] | 1.58 µM | 0.036 µM |  | 
COc1ccc(S(=O)(=O)N2CCC[C@H]2C(=O)Nc2cccc(C)c2)cc1 [Example 20, (S)-1-(4-Methoxy-benzenesulfonyl)-pyrrolidine-2-carboxylic acid m-tolylamide] |  |  | 0.214 µM | 0.017 µM
COc1ccc(S(=O)(=O)N2CCC[C@H]2C(=O)Nc2ccc(C)c(C)c2)cc1 [Example 23, (S)-1-(4-Methoxy-benzenesulfonyl)-pyrrolidine-2-carboxylic acid (3,4-dimethyl-phenyl)-amide] |  |  | 0.174 µM | 0.029 µM
Cc1cc(C)cc(NC(=O)[C@@H]2CCCN2S(=O)(=O)c2ccc(Cl)c(Cl)c2)c1 [Example 54, (S)-1-(3,4-Dichloro-benzenesulfonyl)-pyrrolidine-2-carboxylic acid (3,5-dimethyl-phenyl)-amide] | 0.218 µM | 0.158 µM |  | 
COc1ccc(S(=O)(=O)N2CCC[C@H]2C(=O)Nc2ccc(Cl)c(C)c2)cc1 [Example 39, (S)-1-(4-Methoxy-benzenesulfonyl)-pyrrolidine-2-carboxylic acid (4-chloro-3-methyl-phenyl)-amide] |  |  | 0.235 µM | 0.018 µM
COc1ccc(S(=O)(=O)N2CCC[C@H]2C(=O)Nc2cccc3ccccc23)cc1 [Example 24, (S)-1-(4-Methoxy-benzenesulfonyl)-pyrrolidine-2-carboxylic acid naphthalen-1-ylamide] |  |  | 0.269 µM | 0.171 µM
CCOc1cccc(NC(=O)[C@@H]2CCCN2S(=O)(=O)c2ccc(OC)cc2)c1 [Example 32, (S)-1-(4-Methoxy-benzenesulfonyl)-pyrrolidine-2-carboxylic acid (3-ethoxy-phenyl)-amide] |  |  | 0.134 µM | 0.038 µM
Cc1cc(C)cc(NC(=O)[C@@H]2CCCN2S(=O)(=O)c2cc(C)c(Cl)cc2C)c1 [Example 55, (S)-1-(4-Chloro-2,5-dimethyl-benzenesulfonyl)-pyrrolidine-2-carboxylic acid (3,5-dimethyl-phenyl)-amide] | 0.234 µM | 0.171 µM |  | 
Cc1cc(C)cc(NC(=O)[C@@H]2CCCN2S(=O)(=O)c2ccc(Cl)c(C(F)(F)F)c2)c1 [Example 53, (S)-1-(4-Chloro-3-trifluoromethyl-benzenesulfonyl)-pyrrolidine-2-carboxylic acid (3,5-dimethyl-phenyl)-amide] | 0.048 µM | 0.019 µM |  | 
COc1ccc(S(=O)(=O)N2CCC[C@H]2C(=O)Nc2cccc(Cl)c2)cc1 [Example 18, (S)-1-(4-Methoxy-benzenesulfonyl)-pyrrolidine-2-carboxylic acid (3-chloro-phenyl)-amide] |  |  | 0.083 µM | 0.031 µM

Now from value to compound:

IC50 (human orexin-1 receptor; [1]) | IC50 (human orexin-2 receptor; [1]) | IC50 (human orexin-1 receptor; compound incubation 10 min) | IC50 (human orexin-2 receptor; compound incubation 10 min) | SMILES
 |  | 0.057 µM | 0.003 µM | COc1ccc(S(=O)(=O)N2CCC[C@H]2C(=O)Nc2cccc(SC)c2)cc1OC [Example 10, (S)-1-(3,4-Dimethoxy-benzenesulfonyl)-pyrrolidine-2-carboxylic acid (3-methylsulfanyl-phenyl)-amide]
 |  | 0.022 µM | 0.01 µM | CSc1cccc(NC(=O)[C@@H]2CCCN2S(=O)(=O)c2ccc(Br)cc2)c1 [Example 13, (S)-1-(4-Bromo-benzenesulfonyl)-pyrrolidine-2-carboxylic acid (3-methylsulfanyl-phenyl)-amide]
 |  | 0.054 µM | 0.008 µM | CCc1cccc(NC(=O)[C@@H]2CCCN2S(=O)(=O)c2ccc(OC)cc2)c1 [Example 34, (S)-1-(4-Methoxy-benzenesulfonyl)-pyrrolidine-2-carboxylic acid (3-ethyl-phenyl)-amide]
 |  | 0.008 µM | 0.002 µM | CSc1cccc(NC(=O)[C@@H]2CCCN2S(=O)(=O)c2cccc(Cl)c2)c1 [Example 7, (S)-1-(3-Chloro-benzenesulfonyl)-pyrrolidine-2-carboxylic acid (3-methylsulfanyl-phenyl)-amide]
 |  | 0.021 µM | 0.003 µM | COc1ccc(S(=O)(=O)N2CCC[C@H]2C(=O)Nc2cccc(SC)c2)cc1 [Example 6, (S)-1-(4-Methoxy-benzenesulfonyl)-pyrrolidine-2-carboxylic acid (3-methylsulfanyl-phenyl)-amide]
 |  | 0.07 µM | 0.028 µM | COc1ccc(S(=O)(=O)N2CCC[C@H]2C(=O)Nc2ccc(F)c(C)c2)cc1 [Example 37, (S)-1-(4-Methoxy-benzenesulfonyl)-pyrrolidine-2-carboxylic acid (4-fluoro-3-methyl-phenyl)-amide]
 |  | 0.055 µM | 0.009 µM | COc1ccc(S(=O)(=O)N2CCC[C@H]2C(=O)Nc2cccc(C(F)(F)F)c2)cc1 [Example 17, (S)-1-(4-Methoxy-benzenesulfonyl)-pyrrolidine-2-carboxylic acid (3-trifluoromethyl-phenyl)-amide]
 |  | 0.028 µM | 0.008 µM | COc1cccc(S(=O)(=O)N2CCC[C@H]2C(=O)Nc2cccc(SC)c2)c1 [Example 3, (S)-1-(3-Methoxy-benzenesulfonyl)-pyrrolidine-2-carboxylic acid (3-methylsulfanyl-phenyl)-amide]
 |  | 0.007 µM | 0.002 µM | CSc1cccc(NC(=O)[C@@H]2CCCN2S(=O)(=O)c2cccc(Br)c2)c1 [Example 11, (S)-1-(3-Bromo-benzenesulfonyl)-pyrrolidine-2-carboxylic acid (3-methylsulfanyl-phenyl)-amide]
 |  | 0.007 µM | 0.002 µM | CSc1cccc(NC(=O)[C@@H]2CCCN2S(=O)(=O)c2ccc(Cl)c(Cl)c2)c1 [Example 14, (S)-1-(3,4-Dichloro-benzenesulfonyl)-pyrrolidine-2-carboxylic acid (3-methylsulfanyl-phenyl)-amide]
